Values quoted from earlier work in patent publication US20030108586A1, “Method of long-term reversible contraception for animals” (priority 2001, published 2003).
Like-named read-outs stand apart in the source and are kept apart here.

| SMILES | adverse effects (synthetic progestins) | adverse effects (bitches) |
| --- | --- | --- |
| CC(=O)O[C@]1(C(C)=O)CC[C@H]2[C@@H]3C=C(C)C4=CC(=O)CC[C@]4(C)[C@H]3CC[C@@]21C [Ovabant™, megestrol acetate] | development of mammary tumors as well as endometrial hyperplasia | – |
| C[C@@H]1CC2=CC(=O)CC[C@@H]2[C@H]2CC[C@@]3(C)[C@@H](CC[C@]3(C)O)[C@@H]21 [Mibolerone™, Mibolerone] | – | clitoral hypertrophy |
